Test results as given in PMC6832239, “The Effects of a Novel Series of KTTKS Analogues on Cytotoxicity and Proteolytic Activity” (Molecules, 2019).
“Also recorded” adds a separate entry of the source. Residues, ends and D or L forms follow the SMILES beside them.

Legend:
urokinase [1] = molecular target: T1, urokinase (Homo sapiens, UniProt P00749); set-up: method as in PMID 27434836; settings: competitive and reversible inhibitor; cited from earlier work
T1 construct: purchased Sigma (Schnelldorf, Germany)

plasmin [2] = molecular target: T2, plasmin (Homo sapiens, UniProt P00747); set-up: method as in PMID 27434836; settings: competitive and reversible inhibitor; cited from earlier work
T2 construct: purchased Chromogenix (Milano, Italy)
T2 sequence (P00747 581-810 limits assumed): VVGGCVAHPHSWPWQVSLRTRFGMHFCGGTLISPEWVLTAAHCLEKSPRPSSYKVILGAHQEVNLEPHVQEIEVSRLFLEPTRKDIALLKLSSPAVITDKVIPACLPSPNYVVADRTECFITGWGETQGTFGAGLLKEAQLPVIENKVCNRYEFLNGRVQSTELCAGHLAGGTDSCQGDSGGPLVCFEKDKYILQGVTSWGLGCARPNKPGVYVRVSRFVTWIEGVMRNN
T2 sequence (P00747 97-580 partner limits assumed): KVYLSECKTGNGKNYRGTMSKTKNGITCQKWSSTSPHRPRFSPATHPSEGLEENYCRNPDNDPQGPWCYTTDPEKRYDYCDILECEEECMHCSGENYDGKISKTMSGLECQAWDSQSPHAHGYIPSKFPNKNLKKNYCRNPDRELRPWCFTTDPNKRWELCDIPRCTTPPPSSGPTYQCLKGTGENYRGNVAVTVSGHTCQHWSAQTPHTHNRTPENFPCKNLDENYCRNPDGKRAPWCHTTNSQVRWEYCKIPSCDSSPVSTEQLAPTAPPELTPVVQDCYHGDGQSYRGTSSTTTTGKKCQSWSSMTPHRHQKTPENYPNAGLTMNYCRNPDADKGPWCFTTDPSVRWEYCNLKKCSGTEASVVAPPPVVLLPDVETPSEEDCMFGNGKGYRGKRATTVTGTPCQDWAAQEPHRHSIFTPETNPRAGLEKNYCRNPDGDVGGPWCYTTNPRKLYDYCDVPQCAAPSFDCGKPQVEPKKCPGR

kallikrein 5 = system: kallikrein 5; set-up: method as in PMID 27434836; settings: selectivity; cited from earlier work
neutrophil elastase = system: neutrophil elastase; set-up: method as in PMID 27434836; settings: selectivity; cited from earlier work
tryptase = system: tryptase; set-up: method as in PMID 27434836; settings: selectivity; cited from earlier work
kallikrein 7 = system: kallikrein 7; set-up: method as in PMID 27434836; settings: selectivity; cited from earlier work
[3] = Viability of fibroblast cells, MTT assay; type: cell-based, Human; settings: human, primary dermal fibroblast cells, 24 h, MTT, ± 2, read-out: Viability of fibroblast cells
Method: (§1) Viability of fibroblast cells was examined with the use of the MTT assay. MTT, a yellow tetrazole, is reduced to purple formazan only in living cells. Absorbance of the coloured solution was measured by a spectrophotometer.
(§2) These studies were performed on primary dermal fibroblasts cells. The cells were maintained in DMEM supplemented with 10% fetal bovine serum (FBS), 2 mM glutamin, 50 U/mL penicillin and […] streptomycin at 37 °C in a 5% CO2 incubator. For experiments, cells cultures were plated at a density of 1 × 10^6/well in six-well culture plates (Costar, St. Louis, MO, USA) in 2 mL of growth medium. Cells reached about 80% of confluency at day 2 were used for the assays.
(§3) Toxicity of the tested substances was determined using an MTT [3-(4,5-dimethylthiazol-2-yl)-2,5-diphenyltetrazolium bromide)] assay. Palmitoyl and lipoyl peptides were dissolved in DMSO (dimethyl sulfoxide), the other peptides in DMEM, and added to the cell culture medium. Simultaneously, the same concentrations of DMSO without peptides were added to cells, serving as controls. The final peptide concentrations were: 1 μM, 10 μM, and 100 μM. After 24 h incubation, the cells cultured with the tested compounds were washed with phosphate-buffered saline (PBS) and then incubated for 4 h in 2 mL of MTT solution (5 mg/mL). After removing the medium, the cells were lysed in 200 μL of DMSO with 20 μL of Sorensen’s buffer (pH 10.5, 0.1 mol/L glycine with 0.1 mol/L NaCl). The absorbance of converted dye in living cells was measured at a wavelength of 570 nm. The mean values ± SD from three independent experiments done in duplicate are presented.

[4] = system: primary dermal fibroblasts cells; test: Viability of fibroblast cells, MTT assay; type: cell-based, Human; settings: MTT, 1-100 μM, 24 h
Method: as §1, §2, §3

thrombin = molecular target: T3, thrombin (Bos taurus, UniProt P00735); test: Amidolytic activity of thrombin (chromogenic substrate H-D-Phe-Pip-Arg-pNA); type: biochemical; settings: amidolytic activity; Tris pH 8.4, 37 °C; IC50 by extrapolation using a linear plot; error 5%; read-out: IC50 Thrombin
T3 construct: purchased Lubelska Wytwórnia Szczepionek (Lublin, Poland)
Method: The determination of amidolytic activity was performed as previously described by Okada. A detailed description of the method is given below: 0.2 mL of the examined peptides (0.15 M NaCl as contro), a buffer, and 0.1 mL of enzyme solution were mixed. The final peptide concentrations were: 0.2 mM, 2 mM, and 20 mM. The mixture was incubated at 37 °C for 3 min; then the synthetic substrate solution was added in the same buffer. […] The mean values from three independent experiments done in duplicate are presented. A method error of 5% was adopted as statistical error. […] IC50 was calculated mathematically by extrapolation using a linear plot.

plasmin [5] = molecular target: T2, plasmin; test: Amidolytic activity of plasmin (chromogenic substrate H-D-Val-Leu-Lys-pNA); type: biochemical; settings: amidolytic activity; Tris pH 7.4, 37 °C; IC50 by extrapolation using a linear plot; error 5%; read-out: IC50 Plasmin
Method: (§4) The determination of amidolytic activity was performed as previously described by Okada. A detailed description of the method is given below: 0.2 mL of the examined peptides (0.15 M NaCl as contro), a buffer, and 0.1 mL of enzyme solution were mixed. The final peptide concentrations were: 0.2 mM, 2 mM, and 20 mM. The mixture was incubated at 37 °C for 3 min; then the synthetic substrate solution was added in the same buffer. After 20 min of incubation, the reaction was stopped by adding 0.1 mL of 50% acetic acid and the absorbance of the released p-nitroaniline was measured at 405 nm. The mean values from three independent experiments done in duplicate are presented. A method error of 5% was adopted as statistical error. IC50 value was considered as the concentration of inhibitor that reduces absorbance by 50%, compared with absorbance measured under the same conditions without an inhibitor. IC50 was calculated mathematically by extrapolation using a linear plot. IC50 values are presented in Table 1 and Table 2, and graphically in Figure 1.
(§5) The buffers and the enzyme solutions included: • Tris buffer—0.6 mL (pH 8.8), enzyme: urokinase (50 units/mL), synthetic substrate: pyro-Glu-Gly-Arg-pNA·HCl (0.1 mL, 3 mM); • Tris buffer—0.5 mL (pH 8.4), enzyme: thrombin (1 units/mL), synthetic substrate: H-D-Phe-Pip-Arg-pNA (0.2 mL, 0.75 mM); • Tris buffer—0.5 mL (pH 7.4), enzyme: plasmin (0.4 units/mL), synthetic substrate: H-D-Val-Leu-Lys-pNA (0.2 mL, 3 mM); • Borate buffer—0.5 mL (pH 7.5), enzyme: trypsin (0.4 units/mL), synthetic substrate: Bzl-L-Arg-pNA·HCl (0.2 mL, 8 mM); • Tris buffer—0.6 mL (pH 9.0), enzyme: kallikrein (3 units/mL), synthetic substrate: H-D-Val-Leu-Arg-pNA·2HCl (0.1 mL, 75 mM); • Tris buffer—0.6 mL (pH 8.4), enzyme: t-PA ([…]), synthetic substrate: H-D-Ile-Pro-Arg-pNA (0.1 mL, 10 mM) • Tris buffer—0.6 mL (pH 9.0), enzyme: chymotrypsin (0.4 units/mL), synthetic substrate: Suc-Phe-pNA (0.2 mL, 8 mM)

urokinase [6] = molecular target: T1, urokinase; test: Amidolytic activity of urokinase (chromogenic substrate pyro-Glu-Gly-Arg-pNA); type: biochemical; settings: amidolytic activity; Tris pH 8.8, 37 °C; IC50 by extrapolation using a linear plot; error 5%; read-out: IC50 Urokinase
Method: as §4, §5

Fibroblasts = test: Collagen biosynthesis, 5[3H]-proline incorporation in fibroblasts; type: cell-based, Human; settings: 24 h, ± 2
Method: In collagen biosynthesis assays cells were counted in a haemocytometer and incorporation of a radioactive precursor 5[^3H]-proline into collagen was measured. Total protein synthesis was calculated from the sum of radioactivity of collagenase-resistant proteins and collagen digest.
Fibroblasts were cultured in six-well plates until confluence. Then they were incubated for 24 h in growth medium in the absence or presence of the tested peptides and 5[^3H]-proline (5 µCi/mL, 28 Ci/mM). The final peptide concentrations were: 10 μM, 50 μM and 100 μM. In accordance with the method proposed by Peterkofsky and Diegelmann, incorporation of the radioactive precursor into collagen was determined by digesting the proteins with purified Clostridium histolyticum collagenase. Finally, the monolayers were washed with sterile 10mM PBS, pH 7.4 four times, and cell membranes were disrupted using a sonicator. Aliquots of the cell homogenate were removed for protein measurement using the BCA™ Protein Assay Kit (Pierce, Waltham, MA USA). The results are shown as combined values for cell plus medium fractions.

fibroblast cells = test: DNA biosynthesis, [3H] thymidine incorporation in fibroblasts; type: cell-based, Human; settings: for DNA biosynthesis: 24 h, ± 2; for DNA synthesis: 10, 50, 100 μM
Method: In the radioactive method of DNA measurement in the liquid sample, the radioactive activity of the sample was measured. This technique involves mixing a radioactive material with a scintillation fluid/liquid (which contains a scintillator), resulting in photon emission. This emission is counted by a suitable detector.
To examine the effect of the studied compounds on DNA biosynthesis of fibroblast cells, they were plated in 24-well tissue culture dishes at 1 × 10^5 cells per well with 1 mL of growth medium. The plates were incubated after 48 h with the examined peptides and 0.5 μCi of [^3H] thymidine (6.7 Ci/mmol) at 37 °C. The final peptide concentrations were: 10 μM, 50 μM, and 100 μM. After 24 h incubation, the cells were rinsed with PBS three times and twice with 5% trichloroacetic acid. To measure the radioactivity incorporated into DNA, the cells were solubilized with 1 mL of 0.1 M sodium hydroxide containing 1% SDS and an addition of scintillation liquid (9 mL) (https://www.perkinelmer.com/pl/category/scintillation-cocktails). Radioactivity was determined in a scintillation counter, i.e., Liquid Scintillation Analyzer Tri-Carb 2810 TR (Perkin Elmer, Waltham, MA USA)) with Quanto Smart TM software (Perkin Elmer).

collagen biosynthesis = system: collagen biosynthesis; set-up: method as in PMID 24090916; settings: single concentration of 0.5 mM; cited from earlier work
collagen synthesis = system: collagen synthesis; set-up: method as in PMID 19268583; settings: cited from earlier work
human dermal fibroblasts = system: human dermal fibroblasts; set-up: method as in PMID 23320752; settings: cited from earlier work
[7] = set-up: method as in PMID 25143811; settings: stratum corneum, epidermis, dermis; cited from earlier work
face wrinkles = system: face wrinkles; set-up: method as in PMID 19570099; settings: oil-in-water cream twice daily for 8 and 12 weeks; cited from earlier work

IC50 (thrombin) [µM] | IC50 (plasmin [5]) [µM] | IC50 (urokinase [6]) [µM] | Compound | viability at 24 h, 1 µmol/L [3] [%] | viability at 24 h, 10 µmol/L [3] [%] | viability at 24 h, 100 µmol/L [3] [%] | cytotoxicity / cell growth effect on fibroblasts [4] | Collagen biosynthesis (Fibroblasts; 10 µmol/L) | Collagen biosynthesis (Fibroblasts; 50 µmol/L) | Collagen biosynthesis (Fibroblasts; 100 µmol/L) | DNA biosynthesis (fibroblast cells; 10 µmol/L) | DNA biosynthesis (fibroblast cells; 50 µmol/L) | DNA biosynthesis (fibroblast cells; 100 µmol/L) | DNA synthesis (fibroblast cells) | increase of collagen synthesis (collagen synthesis) | other results
– | – | – | N=C(N)c1ccc(CNC(=O)C(CCc2ccccc2)NC(=O)[C@@H](CO)NS(=O)(=O)Cc2ccccc2)cc1 (stereo partly drawn) [BSFAB, benzylsulfonyl-D-Ser-homoPhe-(4-amidinobenzylamide)] | – | – | – | – | – | – | – | – | – | – | – | – | Ki (urokinase [1]): 0.025 µM; Ki (plasmin [2]): 0.029 µM; inhibition of kallikrein 5 (kallikrein 5): did not inhibit; inhibition of neutrophil elastase (neutrophil elastase): did not inhibit; inhibition of tryptase (tryptase): did not inhibit; inhibition of kallikrein 7 (kallikrein 7): did not inhibit
2950 ± 150 | 5340 ± 270 | 5560 ± 280 | Ac-KTTRS-NH2 [Peptide 14, Ac-Lys-Thr-Thr-Arg-Ser-NH2] | 112 | 135 | 150 | exhibited cell growth effects; also recorded: showed proliferative effect; also recorded: exhibited the effect of cell growth | 105 % of Control | 171 % of Control | 157 % of Control | 114 % of Control | 96 % of Control | 127 % of Control | an increase in DNA synthesis was observed | – | –
12800 ± 640 | 470 ± 23 | – | C[C@@H](O)[C@H](NC(=O)[C@H](CCCCN)NC(=O)CCCCC1CCSS1)C(=O)N[C@H](C(=O)N[C@@H](CCCCN)C(=O)N[C@@H](CO)C(=O)O)[C@@H](C)O (mixture of isomers) [Peptide 3, Lip-Lys-Thr-Thr-Lys-Ser-OH] | 94 | 81 | 81 | did not exhibit fibroblast growth | – | – | – | – | – | – | – | – | increase of collagen biosynthesis (collagen biosynthesis): over 150%
7810 ± 390 | 280 ± 14 | – | H-KTTKS-OH [Peptide 1, H-Lys-Thr-Thr-Lys-Ser-OH, reference compound] | 95 | 82 | 80 | did not exhibit fibroblast growth | – | – | – | – | – | – | – | no such effect | –
– | – | – | CCCCCCCCCCCCCCCC(=O)N[C@@H](CCCCN)C(=O)N[C@H](C(=O)N[C@H](C(=O)N[C@@H](CCCCN)C(=O)N[C@@H](CO)C(=O)O)[C@@H](C)O)[C@@H](C)O [Peptide 4, Pal-Lys-Thr-Thr-Lys-Ser-OH, reference compound] (HELM PEPTIDE1{[CCCCCCCCCCCCCCCC(=O)[*:2]].K.T.T.K.S}$$$$V2.0) | 97 | 91 | 85 | did not exhibit fibroblast growth | – | – | – | – | – | – | – | over 150% | collagen production (human dermal fibroblasts): stimulates collagen production in a concentration-dependent manner; retention in skin layers [7]: retained in different skin layers; length of wrinkles, age spots, skin texture versus placebo cream (face wrinkles): markedly improved
810 ± 41 | 5450 ± 270 | 2360 ± 120 | Ac-RTTKS-OH [Peptide 26, Ac-Arg-Thr-Thr-Lys-Ser-OH] | 112 | 137 | 150 | exhibited cell growth effects; also recorded: showed proliferative effect; also recorded: exhibited the effect of cell growth | 166 % of Control | 77 % of Control | 108 % of Control | 126 % of Control | 112 % of Control | 128 % of Control | increased DNA synthesis was observed at all concentrations | – | –
